From patent US6451738B1, “Substituted thienyl(Amino)-sulphonyl(thio)ureas as herbicides” (Bayer Aktiengesellschaft, priority 1996, dated 2002)

Legend:
Abutilon [1] = assay: Pre-emergence Test/Greenhouse; format: in vivo; settings: 60 g of ai./ha, after three weeks, 0%=no effect, 100%=total destruction
Procedure: (§1) Solvent: 5 parts by weight of acetone
(§2) Emulsifier: 1 part by weight of alkylaryl polyglycol ether
(§3) To produce a suitable preparation of active compound, 1 part by weight of active compound is mixed with the stated amount of solvent, the stated amount of emulsifier is added and the concentrate is diluted with water to the desired concentration.
(§4) Seeds of the test plants are sown in normal soil. After about 24 hours, the soil is sprayed with the preparation of active compound in such a way as to apply the particular amounts of active compound desired per unit area. The concentration of the spray liquor is chosen so that the particular amounts of active compound desired are applied in 1000 l of water/ha.
(§5) After three weeks, the degree of damage to the plants is rated in % damage in comparison with the development of the untreated control.
(§6) 0%=no effect (like untreated control)

Amaranthus [2] = assay: Pre-emergence Test/Greenhouse; format: in vivo; settings: 504 h, after three weeks, 0%=no effect, 100%=total destruction, read-out: degree of damage, Amaranthus; for pest or weed control at 60 g/ha: 60 g of ai./ha; for pest or weed control at 125 g/ha: 125 g of ai./ha
Procedure: as §1, §2, §3, §4, §5, §6

Sinapis [3] = assay: Pre-emergence Test/Greenhouse; format: in vivo; settings: after three weeks, 0%=no effect, 100%=total destruction
Procedure: as §1, §2, §3, §4, §5, §6

weeds [4] = assay: Pre-emergence Test; format: in vivo; settings: in words
Procedure: as §1, §2, §3, §4, §5, §6

Abutilon [5] = assay: Post-emergence Test/Greenhouse; format: in vivo; settings: 60 g of ai./ha, after three weeks, 0%=no effect, 100%=total destruction
Procedure: as §1, §2, §3
as §4, with “Test plants which have a height” for “Seeds”, “5-15 cm” for “the test plants”, “are” for “are sown in normal soil. After about 24 hours, the soil is”
(§7) After three weeks, the degree of damage to the plants is rated in % damage in comparison to the development of the untreated control.
as §6

Amaranthus [6] = assay: Post-emergence Test/Greenhouse; format: in vivo; settings: 504 h, after three weeks, 0%=no effect, 100%=total destruction, read-out: degree of damage, Amaranthus; for pest or weed control at 60 g/ha: 60 g of ai./ha
Procedure: as §1, §2, §3
as §4, with “Test plants which have a height” for “Seeds”, “5-15 cm” for “the test plants”, “are” for “are sown in normal soil. After about 24 hours, the soil is”
as §7, §6

Setaria [7] = assay: Post-emergence Test/Greenhouse; format: in vivo; settings: 60 g of ai./ha, after three weeks, 0%=no effect, 100%=total destruction
Procedure: as §1, §2, §3
as §4, with “Test plants which have a height” for “Seeds”, “5-15 cm” for “the test plants”, “are” for “are sown in normal soil. After about 24 hours, the soil is”
as §7, §6

Sinapis [8] = assay: Post-emergence Test/Greenhouse; format: in vivo; settings: after three weeks, 0%=no effect, 100%=total destruction
Procedure: as §1, §2, §3
as §4, with “Test plants which have a height” for “Seeds”, “5-15 cm” for “the test plants”, “are” for “are sown in normal soil. After about 24 hours, the soil is”
as §7, §6

weeds [9] = assay: Post-emergence Test; format: in vivo; settings: in words
Procedure: as §1, §2, §3
as §4, with “Test plants which have a height” for “Seeds”, “5-15 cm” for “the test plants”, “are” for “are sown in normal soil. After about 24 hours, the soil is”
as §7, §6

Galium = assay: Pre-emergence Test/Greenhouse; format: in vivo; settings: after three weeks, 0%=no effect, 100%=total destruction
Procedure: as §1, §2, §3, §4, §5, §6

Setaria [10] = assay: Pre-emergence Test/Greenhouse; format: in vivo; settings: 60 g of ai./ha, after three weeks, 0%=no effect, 100%=total destruction
Procedure: as §1, §2, §3, §4, §5, §6

Avena fatua = assay: Pre-emergence Test/Greenhouse; format: in vivo; settings: 125 g of ai./ha, after three weeks, 0%=no effect, 100%=total destruction
Procedure: as §1, §2, §3, §4, §5, §6

Cyperus = assay: Pre-emergence Test/Greenhouse; format: in vivo; settings: 60 g of ai./ha, after three weeks, 0%=no effect, 100%=total destruction
Procedure: as §1, §2, §3, §4, §5, §6

Alopecurus [11] = assay: Post-emergence Test/Greenhouse; format: in vivo; settings: after three weeks, 0%=no effect, 100%=total destruction
Procedure: as §1, §2, §3
as §4, with “Test plants which have a height” for “Seeds”, “5-15 cm” for “the test plants”, “are” for “are sown in normal soil. After about 24 hours, the soil is”
as §7, §6

Alopecurus [12] = assay: Pre-emergence Test/Greenhouse; format: in vivo; settings: 4 g of ai./ha, after three weeks, 0%=no effect, 100%=total destruction
Procedure: as §1, §2, §3, §4, §5, §6

Barley = assay: Pre-emergence Test/Greenhouse; format: in vivo; settings: 4 g of ai./ha, after three weeks, 0%=no effect, 100%=total destruction
Procedure: as §1, §2, §3, §4, §5, §6

Chenopodium [13] = assay: Pre-emergence Test/Greenhouse; format: in vivo; settings: after three weeks, 0%=no effect, 100%=total destruction
Procedure: as §1, §2, §3, §4, §5, §6

Lolium = assay: Pre-emergence Test/Greenhouse; format: in vivo; settings: after three weeks, 0%=no effect, 100%=total destruction
Procedure: as §1, §2, §3, §4, §5, §6

Matricaria [14] = assay: Pre-emergence Test/Greenhouse; format: in vivo; settings: after three weeks, 0%=no effect, 100%=total destruction
Procedure: as §1, §2, §3, §4, §5, §6

Veronica = assay: Pre-emergence Test/Greenhouse; format: in vivo; settings: 4 g of ai./ha, after three weeks, 0%=no effect, 100%=total destruction
Procedure: as §1, §2, §3, §4, §5, §6

Wheat = assay: Pre-emergence Test/Greenhouse; format: in vivo; settings: after three weeks, 0%=no effect, 100%=total destruction
Procedure: as §1, §2, §3, §4, §5, §6

Chenopodium [15] = assay: Post-emergence Test/Greenhouse; format: in vivo; settings: 60 g of ai./ha, after three weeks, 0%=no effect, 100%=total destruction
Procedure: as §1, §2, §3
as §4, with “Test plants which have a height” for “Seeds”, “5-15 cm” for “the test plants”, “are” for “are sown in normal soil. After about 24 hours, the soil is”
as §7, §6

Matricaria [16] = assay: Post-emergence Test/Greenhouse; format: in vivo; settings: 60 g of ai./ha, after three weeks, 0%=no effect, 100%=total destruction
Procedure: as §1, §2, §3
as §4, with “Test plants which have a height” for “Seeds”, “5-15 cm” for “the test plants”, “are” for “are sown in normal soil. After about 24 hours, the soil is”
as §7, §6

Xanthium = assay: Post-emergence Test/Greenhouse; format: in vivo; settings: 60 g of ai./ha, after three weeks, 0%=no effect, 100%=total destruction
Procedure: as §1, §2, §3
as §4, with “Test plants which have a height” for “Seeds”, “5-15 cm” for “the test plants”, “are” for “are sown in normal soil. After about 24 hours, the soil is”
as §7, §6

Echinochloa = assay: Pre-emergence Test/Greenhouse; format: in vivo; settings: 60 g of ai./ha, after three weeks, 0%=no effect, 100%=total destruction
Procedure: as §1, §2, §3, §4, §5, §6

| melting point | SMILES | pest or weed control at 60 g/ha (Amaranthus [2]) | degree of damage, Sinapis (Sinapis [3]; 60 g of ai./ha) | activity against weeds (weeds [4]) | degree of damage, Abutilon (Abutilon [5]) | pest or weed control at 60 g/ha (Amaranthus [6]) | degree of damage, Sinapis (Sinapis [8]; 60 g of ai./ha) | activity against weeds (weeds [9]) | also measured |
| --- | --- | --- | --- | --- | --- | --- | --- | --- | --- |
| 140 °C | COc1cc(C)nc(NC(=O)NS(=O)(=O)c2c(C)csc2C)n1 [Example 15] | 90% | 100% | very strong activity | 90% | 100% | 100% | strong activity | degree of damage, Abutilon (Abutilon [1]): 100%; degree of damage, Setaria (Setaria [7]): 90% |
| 180 °C | COc1nc(NC(=O)NS(=O)(=O)c2c(C)csc2C)nc(C2CC2)n1 [Example 10] | 80% |  | very strong activity |  |  |  |  | degree of damage, Galium (Galium; 60 g of ai./ha): 100%; degree of damage, Setaria (Setaria [10]): 80% |
| 189 °C | COc1nc(C)nc(NC(=O)NS(=O)(=O)c2c(C)csc2C)n1 [Example 1, N-(4-methoxy-6-methyl-1,3,5-triazin-2-yl)-N′-(2,4-dimethyl-thien-3-yl-sulplhonyl)-urea] |  |  | very strong activity | 95% | 95% |  | strong activity | degree of damage, Alopecurus (Alopecurus [12]): 100%; pest or weed control at 4 g/ha (Amaranthus [2]; 4 g of ai./ha): 100%; degree of damage, Barley (Barley): 0%; degree of damage, Chenopodium (Chenopodium [13]; 4 g of ai./ha): 100%; degree of damage, Lolium (Lolium; 4 g of ai./ha): 100%; degree of damage, Matricaria (Matricaria [14]; 4 g of ai./ha): 100%; degree of damage, Veronica (Veronica): 100%; degree of damage, Wheat (Wheat; 4 g of ai./ha): 0%; degree of damage, Chenopodium (Chenopodium [15]): 100%; degree of damage, Matricaria (Matricaria [16]): 95%; degree of damage, Xanthium (Xanthium): 100% |
| 168 °C | COc1nc(NC(=O)NS(=O)(=O)c2c(C)csc2C)nc(OC)n1 [Example 9] | 90% | 90% | very strong activity | 80% | 100% | 95% | strong activity | degree of damage, Abutilon (Abutilon [1]): 90% |
| 161 °C | CCc1nc(NC(=O)NS(=O)(=O)c2c(C)csc2C)nc(OC)n1 [Example 13] |  |  |  | 90% | 100% | 95% | strong activity |  |
| 219 °C | COc1cc(Cl)nc(NC(=O)NS(=O)(=O)c2c(C)csc2C)n1 [Example 16] | 95% | 95% | very strong activity |  | 100% | 95% | strong activity | degree of damage, Cyperus (Cyperus): 80% |

Further lines, the compound ahead of its results:

| SMILES | melting point | pest or weed control at 60 g/ha (Amaranthus [2]) | degree of damage, Sinapis (Sinapis [3]; 60 g of ai./ha) | activity against weeds (weeds [4]) | degree of damage, Abutilon (Abutilon [5]) | pest or weed control at 60 g/ha (Amaranthus [6]) | degree of damage, Sinapis (Sinapis [8]; 60 g of ai./ha) | activity against weeds (weeds [9]) | also measured |
| --- | --- | --- | --- | --- | --- | --- | --- | --- | --- |
| Cc1csc(C)c1S(=O)(=O)NC(=O)Nc1nc(Oc2ccccc2)nc(N(C)C)n1 [Example 8] | 173 °C |  |  | very strong activity |  |  |  |  | pest or weed control at 125 g/ha (Amaranthus [2]): 80%; degree of damage, Avena fatua (Avena fatua): 80%; degree of damage, Galium (Galium; 125 g of ai./ha): 90%; degree of damage, Sinapis (Sinapis [3]; 125 g of ai./ha): 80% |
| Cc1cc(C)nc(NC(=O)NS(=O)(=O)c2c(C)csc2C)n1 [Example 14] | 240 °C | 90% | 90% | very strong activity |  | 100% | 100% | strong activity | degree of damage, Cyperus (Cyperus): 100%; degree of damage, Alopecurus (Alopecurus [11]; 60 g of ai./ha): 80% |
| COc1cc(OC)nc(NC(=O)NS(=O)(=O)c2c(C)csc2C)n1 [Example 7] | 198 °C |  |  | very strong activity | 95% | 95% |  | strong activity | degree of damage, Chenopodium (Chenopodium [13]; 60 g of ai./ha): 90%; degree of damage, Echinochloa (Echinochloa): 95%; degree of damage, Lolium (Lolium; 60 g of ai./ha): 95%; degree of damage, Matricaria (Matricaria [14]; 60 g of ai./ha): 95%; degree of damage, Wheat (Wheat; 60 g of ai./ha): 10%; degree of damage, Chenopodium (Chenopodium [15]): 95%; degree of damage, Matricaria (Matricaria [16]): 95%; degree of damage, Xanthium (Xanthium): 95% |
| Cc1csc(C)c1S(=O)(=O)NC(=O)Nc1nc(OCC(F)(F)F)nc(N(C)C)n1 [Example 6] | 195 °C |  |  | very strong activity |  |  |  | strong activity | pest or weed control at 125 g/ha (Amaranthus [2]): 90%; degree of damage, Avena fatua (Avena fatua): 80%; degree of damage, Galium (Galium; 125 g of ai./ha): 100%; degree of damage, Sinapis (Sinapis [3]; 125 g of ai./ha): 90%; degree of damage, Alopecurus (Alopecurus [11]; 125 g of ai./ha): 100%; pest or weed control at 125 g/ha (Amaranthus [6]; 125 g of ai./ha): 80%; degree of damage, Sinapis (Sinapis [8]; 125 g of ai./ha): 100% |
| CSc1nc(C)nc(NC(=O)NS(=O)(=O)c2c(C)csc2C)n1 [Example 11] | 220 °C |  |  |  |  | 100% | 100% | strong activity |  |
